Data taken from patent US11111264B2, “Morphic forms of 4-amino-7-(3,4-dihydroxy-5-(hydroxymethyl)tetrahydrofuran-2-yl)-2-methyl-7H-pyrrolo[2,3-d]pyrimidine-5-carboxamide and uses thereof” (Chimerix, Inc., priority 2017, dated 2021).
Converted amounts (≈) assume the structure as drawn.

Columns and labels:
Format in all cases: physicochemical
[1] = Exact solubility of Compound 1 Form A in selected solvent systems (1 day suspension, HPLC); conditions: for solubility at 1 day: thermodynamic from solid
Protocol: (§1) The exact solubilities of Compound 1 Form A in selected solvent systems were determined at 24° C. and 60° C. About 100 mg of Compound 1 Form A were suspended in 2.0 mL of solvent and stirred using a magnetic stirrer bar for 1 day at 24° C. or 60° C., followed by filter centrifugation at the corresponding temperature. The concentration of Compound 1 was then determined by HPLC.
as §1, with “solubilities of Form A” for “solubilities of Compound 1 Form A”, “Compound 1 were suspended” for “Compound 1 Form A were suspended”

[2] = Chemical stability when stirring suspension at 75° C. (Experiment No. 26); conditions: 1-propanol/0.01 M NaOH aq 1:2 v/v; stirring at 75° C. overnight
Protocol: Experiment No. 26 tested seeding behavior at 75° C. at the 16 g scale as well as chemical stability when stirring suspensions at 75° C. for extended times.
16.02 g of Compound 1 were placed in a 300 mL glass reactor (diameter 70 mm) and 200 mL of 1-propanol/0.01 M NaOH aq 1:2 v/v were added at room temperature. The suspension was stirred using a two-bladed impeller (diameter 40 mm; 500 rpm) and heated to 90° C. in 30 minutes. After stirring at 90° C. for about 15 minutes (500 rpm) the solution formed was cooled to 75° C. with a cooling rate of 15K/hour and stirred at 75° C. for 10 minutes.
At 75° C. the solution was seeded with a suspension of 158 mg of crude Compound 1 in 5 mL of water. The weak suspension formed was stirred at 75° C. overnight followed by hot filtration (sintered glass funnel, porosity P4, diameter 65 mm; the suspension was easy to filter). The glass reactor was flushed with 20 mL of water and the washing suspension was also filtered. The filter cake was again washed with 20 mL of water and air dried for 20 minutes by drawing ambient air through the glass funnel.

[3] = Approximate solubility of Compound 1 in various solvents (stepwise solvent addition); conditions: thermodynamic from solid, read-out: Solubility [S, mg/mL]
Protocol: To determine approximate solubility of Compound 1, solvent was added in steps to the solid material (about 20 to 100 mg). The solubility values were rough approximations. Therefore, these values were used solely for the preliminary design of subsequent crystallization experiments.

Cc1nc(N)c2c(C(N)=O)cn([C@@H]3O[C@H](CO)[C@@H](O)[C@H]3O)c2n1 [Compound 1, 4-amino-7-((2R,3R,4S,5R)-3,4-dihydroxy-5-(hydroxymethyl)tetrahydrofuran-2-yl)-2-methyl-7H-pyrrolo[2,3-d]pyrimidine-5-carboxamide]
solubility at 1 day ([1]; 0.1 M aqueous NaOH, aqueous buffer, NaOH aq 0.1M, 24° C.): 2.8 mg/mL (≈ 8.66 mM)
solubility at 1 day ([1]; 0.1 M aqueous NaOH, aqueous buffer, NaOH aq 0.1M, 60° C.): 8 mg/mL (≈ 24.7 mM)
solubility at 1 day ([1]; DMSO/0.01 M aqueous NaOH 1:2 v/v, aqueous with cosolvent or surfactant or cyclodextrin, DMSO/NaOH aq 0.01M 1:2 v/v, 24° C.): 4.8 mg/mL (≈ 14.8 mM)
solubility at 1 day ([1]; DMSO/0.01 M aqueous NaOH 1:2 v/v, aqueous with cosolvent or surfactant or cyclodextrin, DMSO/NaOH aq 0.01M 1:2 v/v, 60° C.): 19.6 mg/mL (≈ 60.6 mM)
solubility at 1 day ([1]; DMSO/0.1 M aqueous NaOH 1:2 v/v, aqueous with cosolvent or surfactant or cyclodextrin, DMSO/NaOH aq 0.1M 1:2 v/v, 24° C.): 12.5 mg/mL (≈ 38.7 mM)
solubility ([1]; NaOH aq 0.01M, 24° C.): 0.81 mg/mL (≈ 2.51 mM)
solubility at 1 day ([1]; aqueous with cosolvent or surfactant or cyclodextrin, 1-Propanol/NaOH aq 0.01M 1:3 v/v, 24° C.): 6.8 mg/mL (≈ 21 mM)
solubility at 1 day ([1]; aqueous with cosolvent or surfactant or cyclodextrin, 1-Propanol/NaOH aq 0.01M 1:3 v/v, 60° C.): 25.9 mg/mL (≈ 80.1 mM)
solubility at 1 day ([1]; aqueous with cosolvent or surfactant or cyclodextrin, 1-Propanol/NaOH aq 0.1M 1:3 v/v, 24° C.): 16.6 mg/mL (≈ 51.3 mM)
solubility at 1 day ([1]; aqueous with cosolvent or surfactant or cyclodextrin, 1-Propanol/water 1:2 v/v, 60° C.): 30.9 mg/mL (≈ 95.6 mM)
solubility at 1 day ([1]; aqueous with cosolvent or surfactant or cyclodextrin, 2-Propanol/NaOH aq 0.01M 1:3 v/v, 24° C.): 5.2 mg/mL (≈ 16.1 mM)
solubility at 1 day ([1]; aqueous with cosolvent or surfactant or cyclodextrin, 2-Propanol/NaOH aq 0.01M 1:3 v/v, 60° C.): 16.9 mg/mL (≈ 52.3 mM)
solubility at 1 day ([1]; aqueous with cosolvent or surfactant or cyclodextrin, 2-Propanol/NaOH aq 0.1M 1:3 v/v, 24° C.): 14.1 mg/mL (≈ 43.6 mM)
solubility at 1 day ([1]; aqueous with cosolvent or surfactant or cyclodextrin, 2-Propanol/water 1:2 v/v, 60° C.): 26.6 mg/mL (≈ 82.3 mM)
solubility at 1 day ([1]; aqueous with cosolvent or surfactant or cyclodextrin, DMSO/water 1:1 v/v, 60° C.): 18.7 mg/mL (≈ 57.8 mM)
solubility at 1 day ([1]; aqueous with cosolvent or surfactant or cyclodextrin, Ethanol/NaOH aq 0.01M 1:3 v/v, 24° C.): 3.3 mg/mL (≈ 10.2 mM)
solubility at 1 day ([1]; aqueous with cosolvent or surfactant or cyclodextrin, Ethanol/NaOH aq 0.01M 1:3 v/v, 60° C.): 15.3 mg/mL (≈ 47.3 mM)
solubility at 1 day ([1]; aqueous with cosolvent or surfactant or cyclodextrin, Ethanol/NaOH aq 0.1M 1:3 v/v, 24° C.): 9 mg/mL (≈ 27.8 mM)
chemical stability of suspension [2]: chemically stable
solubility ([3]; aqueous buffer, NaOH aq 0.1M, 60° C.): ~9 mg/mL (≈ 27.8 mM)
solubility ([3]; aqueous buffer, NaOH aq 0.1M, RT): ~3 mg/mL (≈ 9.28 mM)
solubility ([3]; aqueous buffer, NaOH aq 0.5M, 60° C.): ~38 mg/mL (≈ 118 mM)
solubility ([3]; aqueous buffer, NaOH aq 0.5M, RT): ~16 mg/mL (≈ 49.5 mM)
solubility ([3]; aqueous buffer, NaOH aq 1M, 60° C.): ~95 mg/mL (≈ 294 mM)
solubility ([3]; aqueous buffer, NaOH aq 1M, RT): ~60 mg/mL (≈ 186 mM)
solubility ([3]; aqueous with cosolvent or surfactant or cyclodextrin, 1-Propanol/water 1:2 v/v, RT): ~6 mg/mL (≈ 18.6 mM)
solubility ([3]; aqueous with cosolvent or surfactant or cyclodextrin, 1-Propanol/water 1:2 v/v, at 80° C.): ~51 mg/mL (≈ 158 mM)
solubility ([3]; aqueous with cosolvent or surfactant or cyclodextrin, 1-Propanol/water 2:1 v/v, RT): ~7 mg/mL (≈ 21.7 mM)
solubility ([3]; aqueous with cosolvent or surfactant or cyclodextrin, 2-Propanol/NaOH aq 0.1M 1:1 v/v, RT): ~16 mg/mL (≈ 49.5 mM)
solubility ([3]; aqueous with cosolvent or surfactant or cyclodextrin, 2-Propanol/water 1:1 v/v, RT): ~7 mg/mL (≈ 21.7 mM)
solubility ([3]; aqueous with cosolvent or surfactant or cyclodextrin, 2-Propanol/water 1:2 v/v, RT): ~5 mg/mL (≈ 15.5 mM)
solubility ([3]; aqueous with cosolvent or surfactant or cyclodextrin, 2-Propanol/water 1:2 v/v, at 70° C.): ~31 mg/mL (≈ 95.9 mM)
solubility ([3]; aqueous with cosolvent or surfactant or cyclodextrin, 2-Propanol/water 2:1 v/v, RT): ~6 mg/mL (≈ 18.6 mM)
solubility ([3]; aqueous with cosolvent or surfactant or cyclodextrin, DMSO/NaOH aq 0.1M 1:1 v/v, RT): ~20 mg/mL (≈ 61.9 mM)
solubility ([3]; aqueous with cosolvent or surfactant or cyclodextrin, DMSO/water 1:1 v/v, RT): ~8 mg/mL (≈ 24.7 mM)
solubility ([3]; aqueous with cosolvent or surfactant or cyclodextrin, DMSO/water 1:1 v/v, at 80° C.): ~45 mg/mL (≈ 139 mM)
solubility ([3]; aqueous with cosolvent or surfactant or cyclodextrin, DMSO/water 1:2 v/v, RT): ~3 mg/mL (≈ 9.28 mM)
solubility ([3]; aqueous with cosolvent or surfactant or cyclodextrin, THF/water 1:1 v/v, RT): ~22 mg/mL (≈ 68 mM)
solubility ([3]; aqueous with cosolvent or surfactant or cyclodextrin, THF/water 1:4 v/v, RT): ~6 mg/mL (≈ 18.6 mM)
solubility ([3]; aqueous with cosolvent or surfactant or cyclodextrin, THF/water 4:1 v/v, RT): ~15 mg/mL (≈ 46.4 mM)
solubility ([3]; organic solvent or mixture, DMSO, RT): ~500 mg/mL (≈ 1550 mM)
solubility ([3]; organic solvent or mixture, Ethanol, RT): 1.7 mg/mL (≈ 5.26 mM)
solubility ([3]; organic solvent or mixture, THF, RT): < 1 mg/mL
solubility ([3]; Water, 60° C.): ~3 mg/mL (≈ 9.28 mM)
solubility ([3]; Water, RT): < 1.3 mg/mL
